Patent US20260190612A1, “LIGHT-EMITTING DEVICE” (SEMICONDUCTOR ENERGY LABORATORY CO., LTD., priority 2022, published 2026)
Converted amounts (≈) assume the structure as drawn.

Assay: solubility of the first organic compound in water

Compound | solubility
c1ccc2c(c1)-c1ccccc1C21c2cc(N3CCCN4CCCN=C43)ccc2-c2ccc(N3CCCN4CCCN=C43)cc21 [2,7hpp2SF, 1,1′-(9,9′-spirobi[9H-fluorene]-2,7-diyl)bis(1,3,4,6,7,8-hexahydro-2H-pyrimido[1,2-a]pyrimidine)] | 230 to 390 µg/mL (≈ 389 to 660 µM)
CC(C)(C)c1ccc2c(c1)C1(c3ccccc3-c3ccc(N4CCCN5CCCN=C54)cc31)c1cc(C(C)(C)C)ccc1-2 [2′,7′tBu-2hppSF, 1-(2′,7′-di-tert-butyl-9,9′-spirobi[9H-fluoren]-2-yl)-1,3,4,6,7,8-hexahydro-2H-pyrimido[1,2-a]pyrimidine] | < 2.3 µg/mL
c1ccc2c(c1)-c1ccccc1C21c2ccccc2-c2ccc(N3CCCN4CCCN=C43)cc21 [2hppSF, 1-(9,9′-spirobi[9H-fluoren]-2-yl)-1,3,4,6,7,8-hexahydro-2H-pyrimido[1,2-a]pyrimidine] | 18 to 22 µg/mL (≈ 39.7 to 48.5 µM)
